Assay [1] relates to Mycobacterium tuberculosis. Put plainly: Antimicrobial activity against Mycobacterium bovis BCG under aerobic condition for 7 days by MTT assay. Type of assay: functional. The conditions noted are these: variant bovis BCG, 168 h. (Tetrazolium assays rely on reduction of a dye to a coloured formazan, in cell work by metabolically active cells.)
Assay [2] deals with Mycobacterium tuberculosis. The assay can be described thus: Antimicrobial activity against Mycobacterium bovis BCG under dormancy-inducing hypoxic condition for 14 days by MTT assay. The conditions noted are these: variant bovis BCG, 336 h. Type of assay: functional.

Our source for the MIC values is ChEMBL document CHEMBL2046425, “Neamphamide B, new cyclic depsipeptide, as an anti-dormant mycobacterial substance from a Japanese marine sponge of Neamphius sp” (2012).

Converted amounts (≈) assume the structure as drawn.

As a reminder, the MIC is the lowest concentration found to suppress growth. As to `COC(c1ccc(O)cc1)C1NC(=O)[C@H](CCC(N)=O)N(C)C(=O)[C@H](CC(C)C)NC(=O)[C@@H](CCCNC(=N)N)NC(=O)[C@@H]([C@@H](C)O)NC(=O)[C@H](NC(=O)C(NC(=O)[C@H](O)[C@H](O)[C@H](CCCNC(=N)N)NC(=O)[C@@H](CC(N)=O)NC(=O)C(C)C(O)C(C)CC(C)C)C(C)C(C)C(N)=O)[C@@H](C)OC(=O)[C@@H]2CCCCN2C1=O` (some centres not stated) [NEAMPHAMIDE B], the figures for the MIC in assay [1] and in assay [2] were 6.25 mg/L (≈ 3.97 µM) and 12.5 mg/L (≈ 7.94 µM), respectively.
